Measurements as given in PMC5289892 (ACS chemical biology, 2016).

Key:
[1] = Animal weight in xenograft-bearing mice; details: 1483 xenograft-bearing mice, 14 days treatment
ovine COX-1 = biological target: T1, ovine COX-1 (Ovis aries, UniProt P05979); assay: Purified COX-1 enzyme inhibition assay; assay type: biochemical
T1 sequence (P05979 25-600): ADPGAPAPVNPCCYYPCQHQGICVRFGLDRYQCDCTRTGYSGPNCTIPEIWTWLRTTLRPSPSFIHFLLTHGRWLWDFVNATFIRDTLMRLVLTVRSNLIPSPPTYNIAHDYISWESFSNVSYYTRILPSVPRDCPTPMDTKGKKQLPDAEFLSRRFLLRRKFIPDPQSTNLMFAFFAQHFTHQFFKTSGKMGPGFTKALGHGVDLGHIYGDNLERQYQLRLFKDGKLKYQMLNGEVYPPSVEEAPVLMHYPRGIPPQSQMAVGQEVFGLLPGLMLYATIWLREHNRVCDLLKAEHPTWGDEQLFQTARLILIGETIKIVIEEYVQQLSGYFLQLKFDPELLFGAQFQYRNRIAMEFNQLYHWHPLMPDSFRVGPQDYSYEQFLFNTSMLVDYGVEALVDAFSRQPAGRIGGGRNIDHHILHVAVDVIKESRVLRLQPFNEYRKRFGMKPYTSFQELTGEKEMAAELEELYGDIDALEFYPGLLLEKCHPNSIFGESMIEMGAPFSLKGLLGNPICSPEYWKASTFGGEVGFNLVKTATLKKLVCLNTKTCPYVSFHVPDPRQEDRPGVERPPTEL

1483 HNSCC cells [2] = assay: Cell viability assay; assay type: cell-based, human; details: 48 h
[3] = tested on: primary human mammary epithelial cells (HMEC); assay: Cell viability assay; assay type: cell-based; details: 48 h, read-out: EC50 cytostatic effect
mouse COX-2 = biological target: T2, mouse COX-2 (Mus musculus, UniProt Q05769); assay: Purified COX-2 enzyme inhibition assay; assay type: biochemical
T2 sequence (Q05769 18-604): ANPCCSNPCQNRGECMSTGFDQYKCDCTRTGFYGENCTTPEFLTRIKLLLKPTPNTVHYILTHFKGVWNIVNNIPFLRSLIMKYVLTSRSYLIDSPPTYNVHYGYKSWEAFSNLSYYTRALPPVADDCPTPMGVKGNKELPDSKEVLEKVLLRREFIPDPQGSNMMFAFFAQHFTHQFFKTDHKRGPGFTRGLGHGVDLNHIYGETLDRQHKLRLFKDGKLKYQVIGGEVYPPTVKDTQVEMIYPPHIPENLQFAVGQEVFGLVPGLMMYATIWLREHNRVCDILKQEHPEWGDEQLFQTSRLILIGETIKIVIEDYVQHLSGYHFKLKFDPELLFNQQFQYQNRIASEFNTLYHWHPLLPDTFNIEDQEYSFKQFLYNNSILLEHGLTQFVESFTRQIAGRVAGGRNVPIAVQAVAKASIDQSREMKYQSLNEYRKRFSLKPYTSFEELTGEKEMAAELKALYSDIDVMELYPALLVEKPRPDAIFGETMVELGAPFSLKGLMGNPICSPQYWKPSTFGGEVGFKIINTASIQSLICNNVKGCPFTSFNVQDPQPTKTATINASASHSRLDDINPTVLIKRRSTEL

1483 HNSCC cells [4] = assay: Reversibility of inhibition of 1483 cell growth; assay type: cell-based, human; details: 1483 cells
1483 HNSCC xenografts = assay: In vivo tumor growth, 1483 HNSCC xenografts; details: 1483 xenograft-bearing nude mice, daily intraperitoneal, 14 days

With `COc1cc([C@@H]2c3cc4c(cc3[C@H](O)[C@H]3COC(=O)[C@H]23)OCO4)cc(OC)c1OC` [Podophyllotoxin] the “effect on animal weight” value [1] was “decrease in animal weight”, the “COX-1 inhibition, in words” value (ovine COX-1) was “inactive” and the “lowest cell number reached, % of vehicle-treated cultures” value (1483 HNSCC cells [2]; 1483 cells) was ~ 35%. The EC50 (1483 HNSCC cells [2]; Homo sapiens, read-out: EC50 reduction in cell number) was 62 nM, the EC50 [3] was 360 nM and the “COX-2 inhibition, in words” value (mouse COX-2) was “inactive”. For the same compound, the “effect of washout on reduction in cell number” value (1483 HNSCC cells [4]; 10 μM for 5 h, washout, further 72 h) was “significant recovery of cell number”, the “reduction of total cell number” value (1483 HNSCC cells [4]; 10 μM, 72 h) was ~ 80% and the “effect on tumor growth” value (1483 HNSCC xenografts) was “no effect on tumor size”.
